Consider two molecules from patent US20180289678A1, “PHARMACEUTICAL COMPOSITION, PHARMACEUTICAL DOSAGE FORM, PROCESS FOR THEIR PREPARATION, METHODS FOR TREATING AND USES THEREOF” (Boehringer Ingelheim International GmbH, priority 2009, published 2018).

A short description of this series: Particle size distribution measurement by laser diffraction. Format: physicochemical. The settings on record: particle size distribution by volume. The source says:
The value X90 refers to the 90% value of the volume distribution measured using a laser diffractometer. In other words, for the purposes of the present invention, the X90 value denotes the particle size below which 90% of the quantity of particles is found based on the volume distribution. Analogously the value X50 refers to the 50% value (median) of the volume distribution measured using a laser diffractometer. In other words, for the purposes of the present invention, the X50 value denotes the particle size below which 50% of the quantity of particles is found based on the volume distribution. Analogously the value X10 refers to the 10% value of the volume distribution measured using a laser diffractometer. In other words, for the purposes of the present invention, the X10 value denotes the particle size below which 10% of the quantity of particles is found based on the volume distribution.
Preferably all X90, X50, X10 values hereinbefore and hereinafter are by volume and determined by laser-diffraction method, in particular low angle laser light scattering, i.e. Fraunhofer diffraction. A preferred test is described in the experimental section. The laser diffraction method is sensitive to the volume of a particle and provides a volume-average particle size, which is equivalent to the weight-average particle size if the density is constant.
3. Particle Size Distribution Measurement by Laser Diffraction
Particle size distribution measurement is performed for example via light scattering or laser diffraction technique. To determine the particle size the powder is fed into a laser diffraction spectrometer for example by means of a dispersing unit. The test method is described below in detail:
Equipment: Laser Diffraction Spectrometer Sympatec HELOS Particle Sizer.
Sample Dispersing Unit: Dry disperser RODOS/M
Feed Velocity: 60.00 mm/s
Primary pressure: 2.00 bar
Injector depression: maximize (mbar)2
Reference Measurement: 10 seconds
Trigger Conditions: Start 0.0 seconds after optical concentration 1% valid always
Stop after 5.0 seconds optical concentration 1% or after 30 seconds real time
Optical Concentration: Approximately range 3-12%
Sample Size: Approximately 100 mg
Number of measurements: 2 (duplicate)
The instrument is set up according to the manufacturer's recommendation and using the manufacturer provided software. The sample container is thoroughly mixed and tumbled prior to removing a portion of the sample to ensure that a representative sample is tested. Duplicate samples are prepared by using a spatula to transfer approximately 100 mg of a sample into the ASPIROS glass vials and cap the vials. The capped cials are placed into the feeder.

In turn, `OC[C@H]1O[C@@H](c2ccc(Cl)c(Cc3ccc(O[C@H]4CCOC4)cc3)c2)[C@H](O)[C@@H](O)[C@@H]1O` [Active substance Batch 1] displayed an X10 of 1.8 μm, an X50 of 18.9 μm and an X90 of 45.3 μm.
Taken in the same sequence, the figures for `OC[C@H]1O[C@@H](c2ccc(Cl)c(Cc3ccc(O[C@H]4CCOC4)cc3)c2)[C@H](O)[C@@H](O)[C@@H]1O` [Active substance Batch 2] were 1.7 μm, 12.1 μm and 25.9 μm.
